From US11439640B2, “Pharmaceutical composition comprising substance inhibiting enzymatic activity of peroxiredoxin 2 as effective ingredient for treatment of colorectal cancer” (EWHA UNIVERSITY-INDUSTRY COLLABORATION FOUNDATION, priority 2017, dated 2022)
Residues, ends and D or L forms follow the SMILES beside them. *: point of attachment. Cbz = O=C(OCc1ccccc1)*

Experiments:
[1] = test system: Axin1-related destruction complex; assay: Co-immunoprecipitation of Axin1-related destruction complex; assay type: cell-based, human; details: SW480 cells; FIG. 34
Method: (§1) For immunoprecipitation, purified cell lysates (0.5-1 mg of proteins) were removed in advance with 30 μL of protein-A/G Sepharose 4 Fast Flow beads (Amersham Biosciences) for one hour.
(§2) Supernatants (cultures floating on the surface) were incubated with 3 μg of an appropriate antibody overnight, and then, precipitated by mixing with 30 μL of protein-A/G beads at 4° C. for three hours.
(§3) Then, the beads were washed three times with 1 mL of lysis buffer, followed by in vitro PARP analysis or immunoblotting.

HT29 cells = assay: Colony forming assay in HT29 cells; assay type: cell-based, human; details: APC-mutant CRC cells
recombinant human PrxI = target: T1, recombinant human PrxI (Homo sapiens, UniProt Q06830); assay: Peroxiredoxin (peroxidase) assay, PrxI; assay type: biochemical
T1 sequence (Q06830 1-199): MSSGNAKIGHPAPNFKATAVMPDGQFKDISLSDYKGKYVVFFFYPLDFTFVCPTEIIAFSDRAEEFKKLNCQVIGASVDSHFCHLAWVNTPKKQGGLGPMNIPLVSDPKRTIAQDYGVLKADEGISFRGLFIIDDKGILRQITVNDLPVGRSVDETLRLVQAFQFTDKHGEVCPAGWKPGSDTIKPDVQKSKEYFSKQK
Method: The peroxidase assay was performed in a reaction mixture (200 μL) containing 250 μM NADPH, 1.5 μM yeast TR, 3 μM yeast Trx, a recombinant human Prx (PrxI (4.6 μM) and PrxII (16.4 μM)), and […] (pH 7.0) containing 1 mM EDTA, and […] H2O2.
The mixture (minus H2O2) was preincubated for 5 minutes in the presence or absence of Compounds 1 to 6 (100 μM), and then, the reaction was initiated by adding H2O2. NADPH oxidation was monitored at 30° C. for 5 minutes as the absorbance decreased near 340 nm using an Agilent UV8453 spectrophotometer (Hewlett Packard. USA). The initial reaction rate was calculated using the linear portion of the curve and indicated as the amount of oxidized NADPH per minute.

RKO cells = assay: Colony forming assay in RKO cells; assay type: cell-based, human; details: APC wild-type CRC cells
SW480 cells = assay: Colony forming assay in SW480 cells; assay type: cell-based, human; details: APC-mutant CRC cells
[2] = test system: tumor xenograft derived from HT29; assay: HT29 tumor xenograft in mice (luminescence imaging, tumor weight); assay type: in vivo, mouse; details: intraperitoneal, 286 μM in DMSO, from 6 days after cell injection, every 3 days; FIGS. 65 and 66
Method: In the case of a tumor xenograft model, the mice were anesthetized by the inhalation of isoflurane gas (N2O:O2/70%:30%) and subcutaneously injected with HT29-luc2 cells (2.5×10^5 cells) suspended in 200 μL of PBS. Compound 1 to Compound 6 (286 μM in DMSO) were intraperitoneal administered starting from 6 days after the cell injection and repeated every 3 days.
Bioluminescent imaging was performed with IVIS Lumina Series III (Perkin Elmer). For each image photographing session, luciferin suspended in PBS (150 mg of luciferin/kg body weight) was administered intraperitoneally according to the manufacturer's protocol.
Up to four animals were maintained in the integral anesthetic manifold equipment and they were imaged 10 minutes after luciferin injection. The IVIS imaging system collects the photographic images of mice and quantitative bioluminescent signals therefrom and then allows them to overlap with each another.

TNKS = details: FIG. 40
Method: (§4) Immunocomplex-bound beads were incubated at 25° C. for 30 minutes in 40 μL of assay buffer (50 mM Tris-HCl, pH 8.0, 4 mM MgCl2) containing 4 μCi of γ-^32[P]-NAD^+. The reaction was stopped by adding 2×SDS sample buffer. The sample was boiled and separated using an SDS denaturing gel.
(§5) The gel was dried under vacuum and radiographed on an imaging plate. Radioactivity recorded on the plate was read and quantified by Fujifilm Bio-imaging Analyzer System (BAS)-3000.

[3] = target: recombinant TNKS1 PARP domain (amino acids of 1023-1327) (Homo sapiens, UniProt O95271); details: incubation with H2O2; FIG. 48
Method: as §4, §5

GST-TNKS1 PARP protein = GST-TNKS1 PARP protein (Homo sapiens, UniProt O95271); details: 500 μM H2O2 for 30 minutes; FIG. 49
Method: Zinc ions were observed using 4-(2-pyridylazo) resorcinol (PAR) in an aqueous solution.
The GST-TANK1 PARP protein was incubated with 500 μM H2O2 for 30 minutes in 200 μL of 40 mM HEPES (pH 7.0) reaction buffer containing 0.1 mM PAR. The formation of a PAR2-Zn^2+ complex was monitored at 500 nm with a UV/VIS spectrophotometer (Agilent).
The total zinc content of the purified GST-TNKS1 PARP protein used in the assay was determined by adding 0.5 mM p-chloromercuribenzoic acid to a reaction mixture.

Axin1 = Axin1 immunoprecipitation, PARsylation and ubiquitination blot; assay type: cell-based, human; details: cells of the control, HT29 and SW480
Method: as §1, §2, §3

recombinant TNKS1 PARP domain (amino acids of 1023-1327), sequence (O95271 1023-1327): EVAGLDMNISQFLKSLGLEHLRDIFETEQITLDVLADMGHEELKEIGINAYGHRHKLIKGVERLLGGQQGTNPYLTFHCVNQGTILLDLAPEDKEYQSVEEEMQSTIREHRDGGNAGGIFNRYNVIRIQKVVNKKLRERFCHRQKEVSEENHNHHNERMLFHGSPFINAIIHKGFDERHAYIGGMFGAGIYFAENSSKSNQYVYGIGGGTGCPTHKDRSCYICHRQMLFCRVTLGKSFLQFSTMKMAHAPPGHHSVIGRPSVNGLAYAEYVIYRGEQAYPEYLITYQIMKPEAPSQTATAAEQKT
GST-TNKS1 PARP protein, sequence (O95271 1023-1327): as above

O=C1Nc2cc(Br)ccc2/C1=C1/Nc2ccccc2/C1=N\O [BIO] was tested, and the “phospho-β-catenin in the Axin1-related destruction complex” value [1] was “disappeared”.

For [O-][n+]1c(CBr)c(CBr)[n+]([O-])c2ccccc21 [Compound 6, 2,3-bis(bromomethyl)quinoxaline 1,4-dioxide], the “inhibition of proliferation (colony formation) of HT29 cells” value (HT29 cells) was “sufficiently inhibited”, the “effect on initial rate of PrxI activity (in words)” value (recombinant human PrxI; 100 μM compound) was “not affected” and the inhibition at 100 µM (recombinant human PrxI; 100 μM compound, FIG. 63) was about 50%. The “initial rate of PrxI activity” value (recombinant human PrxI; group treated with Conoidin A, 100 μM, control 263.7±45.4) was 241.7 ± 21 nmol/min, the “inhibition of proliferation (colony formation) of RKO cells” value (RKO cells) was “not” and the “inhibition of proliferation (colony formation) of SW480 cells” value (SW480 cells) was “sufficiently inhibited”. For the same compound, the “tumor growth compared to the control” value [2] was “significantly delayed”.

For OO [Compound H2O2, hydrogen peroxide], the “TNKS activity (PARP) in HT29 cells” value (TNKS; HT29 cells) was “inhibited”, the “TNKS activity (PARP) in SW480 cells” value (TNKS; SW480 cells) was “inhibited” and the “polyADP-ribosylation activity of TNKS1 PARP domain” value [3] was “fully inactivated”. The “TNKS1 PARP proteins that lost zinc ions” value (GST-TNKS1 PARP protein) was at least 90%.

In the case of CC(C)C[C@@H](C=O)NC(=O)[C@H](CC(C)C)NC(=O)[C@H](CC(C)C)NC(=O)OCc1ccccc1 [MG132] (Cbz-Leu-Leu-Leu-aldehyde), the “PARsylated and ubiquitinated Axin1” value (Axin1) is reported as “induces the accumulation”.
